Measurements published in ChEMBL document CHEMBL6083277, “Discovery of SZJK-0421: A Novel Potent, Low Toxicity, Selective Second Generation of CRM1 Inhibitor for the Treatment of Both Hematological and Solid Tumors” (J Med Chem, 2024).
pIC50: −log10 of the molar value. Active and inactive are the calls of the source. No cut-off for these calls is given here.

What was measured:
[1] = tested on: HCT-116; assay: Antitumor activity against human HCT-116 cells xenografted in NOD-SCID mouse assessed as tumor growth inhibition at 60 mg/kg, po measured every 2 days for 21 days; assay type: functional, organism-based; conditions: time 21.0 day
[2] = Metabolic stability in mouse liver microsomes assessed as half life measured upto 60 mins in presence of NADPH by LC/MS-MS analysis; assay type: ADME, Microsome
[3] = Half life in male Sprague-Dawley rat at 30 mg/kg, po measured upto 30 hrs by LC-MS/MS analysis; assay type: ADME, organism-based; conditions: in vivo
[4] = tested on: SW872; assay: Antiproliferative activity against human SW872 cells assessed as inhibition of cell growth incubated for 72 hrs by celltiter-glo assay; assay type: functional, cell-based; conditions: SW872, 72 h
[5] = Toxicity in BALB/c mouse assessed as organ abnormalities at 30 to 60 mg/kg, po administered once daily for 21 days; assay type: organism-based; conditions: in vivo, 504 h, dose 30-60 mg/kg, time 21 day
[6] = Toxicity in NOD-SCID mouse assessed as reduction in cell density in tumor at 60 mg/kg, po measured every 2 days for 21 days by H and E staining based analysis; assay type: organism-based; conditions: in vivo, 504 h, time 21 day
[7] = Half life in male Sprague-Dawley rat at 10 mg/kg, po measured upto 30 hrs by LC-MS/MS analysis; assay type: ADME, organism-based; conditions: in vivo
[8] = AUC (0 to infinity) in male Sprague-Dawley rat at 30 mg/kg, po measured upto 30 hrs by LC-MS/MS analysis; assay type: ADME, organism-based; conditions: in vivo
[9] = Half life in male Sprague-Dawley rat at 15 mg/kg, po measured upto 30 hrs by LC-MS/MS analysis; assay type: ADME, organism-based; conditions: in vivo
[10] = tested on: MM1.S; assay: Induction of apoptosis in human MM1.S cells at 0.5 to 1 uM incubated for 48 hrs by Annexin V-FITC/PI staining based flow cytometry analysis; assay type: functional, cell-based; conditions: dose 0.5-1 µM
[11] = tested on: MOLM-13; assay: Antiproliferative activity against human MOLM-13 cells assessed as inhibition of cell growth incubated for 72 hrs by celltiter-glo assay; assay type: functional, cell-based; conditions: MOLM-13, 72 h
[12] = tested on: MM1.S; assay: Antitumor activity against human MM1.S cells xenografted in NOD-SCID mouse assessed as tumor growth inhibition at 60 mg/kg, po qd measured upto 21 days; assay type: functional; conditions: 504 h, time <= 21 day, read-out: TGI
[13] = Antiproliferative activity against human ARP-1 cells assessed as inhibition of cell growth incubated for 72 hrs by celltiter-glo assay; assay type: functional, cell-based; conditions: ARP-1, 72 h
[14] = Toxicity in NOD-SCID mouse assessed as shortening of villi in intestine at 15 to 60 mg/kg, po measured every 2 days for 21 days by H and E staining based analysis; assay type: organism-based; conditions: in vivo, 504 h, dose 15-60 mg/kg, time 21 day
[15] = tested on: MM1.S; assay: Antitumor activity against human MM1.S cells xenografted in NOD-SCID mouse assessed as tumor growth inhibition at 15 mg/kg, po qd measured upto 21 days; assay type: functional; conditions: 504 h, time <= 21 day, read-out: TGI
[16] = Cmax in male Sprague-Dawley rat at 15 mg/kg, po measured upto 30 hrs by LC-MS/MS analysis; assay type: ADME, organism-based; conditions: in vivo
[17] = Metabolic stability in mouse liver microsomes assessed as intrinsic clearance measured upto 60 mins in presence of NADPH by LC/MS-MS analysis; assay type: ADME, Microsome; conditions: read-out: CLH
[18] = Toxicity in NOD-SCID mouse assessed as decrease in villus height to crypt depth ratio at 15 to 60 mg/kg, po measured every 2 days for 21 days by H and E staining based analysis; assay type: organism-based; conditions: in vivo, 504 h, dose 15-60 mg/kg, time 21 day
[19] = molecular target: Exportin-1 (Homo sapiens) (UniProt O14980); assay: Reversible binding affinity to CRM1 in human U2OS cells incubated for 4 hrs by DAPI staining based fluorescence microscopic analysis; assay type: cell-based
Chain of Exportin-1 (Homo sapiens) (O14980 whole entry): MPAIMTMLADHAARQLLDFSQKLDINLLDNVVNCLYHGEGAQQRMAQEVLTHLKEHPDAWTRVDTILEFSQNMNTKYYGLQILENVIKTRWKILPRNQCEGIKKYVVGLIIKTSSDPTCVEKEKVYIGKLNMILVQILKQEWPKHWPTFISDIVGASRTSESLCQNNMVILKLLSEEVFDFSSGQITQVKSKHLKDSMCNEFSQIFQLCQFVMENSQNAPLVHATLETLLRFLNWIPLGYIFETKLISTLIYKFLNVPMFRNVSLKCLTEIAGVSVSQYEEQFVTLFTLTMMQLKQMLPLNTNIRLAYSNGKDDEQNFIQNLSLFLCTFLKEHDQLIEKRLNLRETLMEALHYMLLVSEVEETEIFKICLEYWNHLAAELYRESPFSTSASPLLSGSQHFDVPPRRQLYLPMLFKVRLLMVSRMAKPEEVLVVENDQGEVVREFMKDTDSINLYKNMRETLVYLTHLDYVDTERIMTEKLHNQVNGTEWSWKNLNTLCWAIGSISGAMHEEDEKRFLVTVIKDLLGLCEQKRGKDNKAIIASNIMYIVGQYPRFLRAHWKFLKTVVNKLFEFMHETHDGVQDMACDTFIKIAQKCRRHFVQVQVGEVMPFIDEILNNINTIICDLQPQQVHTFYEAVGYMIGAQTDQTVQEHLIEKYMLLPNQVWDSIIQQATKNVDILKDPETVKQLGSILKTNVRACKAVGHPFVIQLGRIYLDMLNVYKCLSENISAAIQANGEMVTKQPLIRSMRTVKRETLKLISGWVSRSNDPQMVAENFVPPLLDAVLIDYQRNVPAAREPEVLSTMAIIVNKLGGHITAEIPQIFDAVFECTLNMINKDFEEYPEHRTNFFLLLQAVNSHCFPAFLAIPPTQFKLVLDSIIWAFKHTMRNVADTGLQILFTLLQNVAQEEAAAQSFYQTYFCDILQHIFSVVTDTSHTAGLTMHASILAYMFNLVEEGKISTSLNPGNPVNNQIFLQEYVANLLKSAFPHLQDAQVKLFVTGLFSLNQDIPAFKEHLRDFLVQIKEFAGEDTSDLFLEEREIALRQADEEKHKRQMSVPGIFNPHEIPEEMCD

[20] = tested on: MV4-11; assay: Antiproliferative activity against human MV4-11 cells assessed as inhibition of cell growth incubated for 72 hrs by celltiter-glo assay; assay type: functional, cell-based; conditions: MV4-11, 72 h
[21] = tested on: MM1.S; assay: Antiproliferative activity against human MM1.S cells assessed as inhibition of cell growth incubated for 72 hrs by celltiter-glo assay; assay type: functional, cell-based
[22] = tested on: AN3-CA; assay: Antiproliferative activity against human AN3-CA cells assessed as inhibition of cell growth incubated for 72 hrs by celltiter-glo assay; assay type: functional, cell-based
[23] = tested on: MM1.S; assay: Induction of apoptosis in human MM1.S cells assessed as increase in p53 level at 0.5 to 1 uM incubated for 48 hrs by Western blot analysis; assay type: functional, cell-based; conditions: dose 0.5-1 µM
[24] = Tmax in male Sprague-Dawley rat at 15 mg/kg, po measured upto 30 hrs by LC-MS/MS analysis; assay type: ADME, organism-based; conditions: in vivo
[25] = tested on: KMS-11; assay: Antiproliferative activity against human KMS-11 cells assessed as inhibition of cell growth incubated for 72 hrs by celltiter-glo assay; assay type: functional, cell-based; conditions: KMS-11, 72 h
[26] = AUC (0 to infinity) in male Sprague-Dawley rat at 2 mg/kg, iv measured upto 30 hrs by LC-MS/MS analysis; assay type: ADME, organism-based; conditions: in vivo
[27] = tested on: MM1.S; assay: Inhibition of CRM1 protein expression in human MM1.S cells by Western blot analysis; assay type: functional, cell-based; conditions: dose 0.25-1.25 µM
[28] = Toxicity in NOD-SCID mouse assessed as loss of crypt depth in intestine at 15 to 60 mg/kg, po measured every 2 days for 21 days by H and E staining based analysis; assay type: organism-based; conditions: in vivo, 504 h, dose 15-60 mg/kg, time 21 day
[29] = Metabolic stability in human liver microsomes assessed as half life measured upto 60 mins in presence of NADPH by LC/MS-MS analysis; assay type: ADME, Microsome
[30] = Toxicity in NOD-SCID mouse assessed as reduction in intact nuclei in tumor at 60 mg/kg, po measured every 2 days for 21 days by H and E staining based analysis; assay type: organism-based; conditions: in vivo, 504 h, time 21 day
[31] = AUC in male Sprague-Dawley rat brain at 10 mg/kg, IG measured at 6 hrs by LC-MS/MS analysis; assay type: ADME, organism-based; conditions: po
[32] = molecular target: Exportin-1 (Homo sapiens) (UniProt O14980); assay: Inhibition of CRM1 in human MM1.S cells assessed as accumulation of p53 protein level at 0.5 to 1 uM incubated for 24 hrs by Western blot analysis; assay type: cell-based; conditions: dose 0.5-1 µM
[33] = tested on: MM1.S; assay: Antitumor activity against human MM1.S cells xenografted in NOD-SCID mouse assessed as tumor growth inhibition at 30 mg/kg, po qd measured upto 21 days; assay type: functional; conditions: 504 h, time <= 21 day, read-out: TGI
[34] = Metabolic stability in human liver microsomes assessed as intrinsic clearance measured upto 60 mins in presence of NADPH by LC/MS-MS analysis; assay type: ADME, Microsome; conditions: read-out: CLH
[35] = tested on: HCT-116; assay: Antiproliferative activity against human HCT-116 cells assessed as inhibition of cell growth incubated for 72 hrs by celltiter-glo assay; assay type: functional, cell-based; conditions: HCT-116, 72 h
[36] = tested on: BXPC-3; assay: Antiproliferative activity against human BXPC-3 cells assessed as inhibition of cell growth incubated for 72 hrs by celltiter-glo assay; assay type: functional, cell-based; conditions: BXPC-3, 72 h
[37] = tested on: ARH-77; assay: Antiproliferative activity against human ARH-77 cells assessed as inhibition of cell growth incubated for 72 hrs by celltiter-glo assay; assay type: functional, cell-based; conditions: ARH-77, 72 h
[38] = Metabolic stability in monkey liver microsomes assessed as half life measured upto 60 mins in presence of NADPH by LC/MS-MS analysis; assay type: ADME, Macaca mulatta, Microsome; conditions: rhesus monkey
[39] = Toxicity in BALB/c mouse assessed as weight loss at 60 mg/kg, po administered once daily for 21 days; assay type: organism-based; conditions: in vivo, 504 h, time 21 day
[40] = AUC in male Sprague-Dawley rat plasma at 10 mg/kg, IG measured at 6 hrs by LC-MS/MS analysis; assay type: ADME, organism-based; conditions: po

half-life [2]: > 2 h
half-life [3]: 3.6 h
pIC50 [4]: 6.12
half-life [7]: 5.6 h
AUC(0-inf) [8]: 10400 ng·h/mL
half-life [9]: 4 h
pIC50 [11]: 6.32
Cmax [16]: 793 ng/mL
microsomal CLint [17]: 12.6 µL/min/mg
Activity [19]: Active
pIC50 [20]: 7.36
pIC50 [21]: 7.06
Tmax [24]: 0.25 h
AUC(0-inf) [26]: 1490 ng·h/mL
half-life [29]: > 2 h
AUC at 6 h [31]: 378 ng·h/mL
inhibition [32]: Active
microsomal CLint [34]: 3.6 µL/min/mg
pIC50 [35]: 6.36
pIC50 [36]: 5.50
half-life [38]: > 2 h
AUC at 6 h [40]: 2480 ng·h/mL
SMILES: CONC(=O)/C(=C/n1cnc(-c2cc(C(F)(F)F)cc(C(F)(F)F)c2)n1)c1cncnc1
TGI [1]: Active
Activity [5]: Non-toxic
Activity [6]: Non-toxic
Activity [10]: Active
inhibition in vivo at 60 mg/kg [12]: 87%
pIC50 [13]: 6.19
Activity [14]: Non-toxic
inhibition in vivo at 15 mg/kg [15]: 80.5%
Activity [18]: Non-toxic
pIC50 [22]: 5.96
Activity [23]: Active
pIC50 [25]: 6.13
inhibition [27]: Dose-dependent-effect
Activity [28]: Non-toxic
Activity [30]: Non-toxic
inhibition in vivo at 30 mg/kg [33]: 86.6%
pIC50 [37]: 6.52
Activity [39]: Non-toxic
